# Measured values from patent publication US11596622B2, “Mazindol treatment for heroin dependence and substance use disorder” (NLS Pharmaceutics AG, priority 2017, dated 2023).
# Columns and labels:
# H1(h) = target: T1, H1(h) (Homo sapiens, UniProt P35367); experiment: Radioligand binding, H1 (Eurofins CEREP); conditions: 1.0 × 10^−05 M; antagonist radioligand; read-out: percent inhibition of the binding of a radioactively labeled ligand
# T1 construct: Eurofins CEREP
# Source text: (§1) Table A discloses mazindol and Met tested at […] and the compound binding calculated as a percent inhibition of the binding of a radioactively labeled ligand specific for each target (Eurofins CEREP, France).
# (§2) An inhibition or stimulation of more than 50% is considered a significant effect of the test compounds. Fifty percent is a common cut-off for further investigation (i.e. determination of IC50 or EC50 values from concentration-response curves). Tables B and C display the binding profiles for Mazindol and Met.
# (§3) The results are expressed as a percent of control specific binding obtained in the presence of the test compounds:
# (§4) [formula] and as a percent inhibition of control specific binding obtained in the presence of the test compounds: […]
# μ (MOP) (h) = target: T2, μ (MOP) (h) (Homo sapiens, UniProt P35372); experiment: Radioligand binding, μ opioid receptor (Eurofins CEREP)
# T2 construct: Eurofins CEREP
# T2 sequence (P35372 whole entry): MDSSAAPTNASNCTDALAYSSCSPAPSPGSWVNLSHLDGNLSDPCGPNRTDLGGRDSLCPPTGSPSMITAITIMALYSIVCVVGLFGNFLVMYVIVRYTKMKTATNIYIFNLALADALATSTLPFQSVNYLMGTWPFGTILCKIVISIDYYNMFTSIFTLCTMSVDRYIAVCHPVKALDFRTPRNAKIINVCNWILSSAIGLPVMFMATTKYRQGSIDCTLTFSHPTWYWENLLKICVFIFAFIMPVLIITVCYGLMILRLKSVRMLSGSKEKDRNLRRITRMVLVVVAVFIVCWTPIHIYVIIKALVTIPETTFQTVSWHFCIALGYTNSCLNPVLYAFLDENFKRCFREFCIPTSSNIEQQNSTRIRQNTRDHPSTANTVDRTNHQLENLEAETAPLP
# Source text: as §1, §2, §3, §4
# k (KOP) = target: T3, k (KOP) (Rattus norvegicus, UniProt P34975); experiment: Radioligand binding, κ opioid receptor (Eurofins CEREP)
# T3 construct: Eurofins CEREP
# T3 sequence (P34975 whole entry): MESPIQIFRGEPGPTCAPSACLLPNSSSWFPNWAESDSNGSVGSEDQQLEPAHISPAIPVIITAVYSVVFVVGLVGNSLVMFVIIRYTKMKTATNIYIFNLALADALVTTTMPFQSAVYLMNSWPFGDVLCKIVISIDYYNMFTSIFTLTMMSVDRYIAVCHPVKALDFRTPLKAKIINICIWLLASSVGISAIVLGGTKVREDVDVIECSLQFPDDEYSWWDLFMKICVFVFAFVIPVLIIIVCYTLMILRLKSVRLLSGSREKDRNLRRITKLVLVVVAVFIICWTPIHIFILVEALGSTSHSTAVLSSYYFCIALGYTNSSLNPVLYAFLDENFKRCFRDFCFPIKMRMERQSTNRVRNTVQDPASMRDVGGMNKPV
# Source text: as §1, §2, §3, §4
# C57BL/6J mice = experiment: Effect of treatment on the conditioned place preference induced by heroin; format: in vivo; conditions: for Distance travelled in the drug-paired compartment / Distance travelled in the two compartments (Drug + Vehicle) / Distance travelled in the vehicle-paired compartment / Distance travelled, drug-paired minus vehicle-paired compartment / Time spent in the drug-paired compartment / Time spent in the vehicle-paired compartment / Time spent, drug-paired minus vehicle-paired compartment: mean
# Source text: Conditioned place preference (CPP) is a widely used procedure for studying the potential addictive effect of drugs. CPP is based upon the tendency of rodents to approach a stimulus that has previously been paired with an incentive state induced by a drug. A drug that induces a CPP may be suspected to present reinforcing effects that could lead to addiction. Numerous addictive drugs, such as opiate agonists or stimulants induce a CPP and a behavioral sensitization.
# The effect of mazindol on place preference was examined in C57BL/6J mice using a method similar to the one used by Schlussman et al. (9).
# The third experiments consisted in examining the effects of mazindol and D-amphetamine (at doses chosen from results of the first part of the study) on the place preference induced by heroin at a dose chosen from results of the second experiment, which was 1.25 mg/kg. Mazindol (0.125, 0.25 and 0.5 mg/kg) and D-amphetamine (0.5 mg/kg) were tested.
# Therefore, it was decided to perform an additional experiment to examine the effects on place preference induced by heroin of mazindol at 1 and 2 mg/kg and of D-amphetamine at 1 mg/kg.
# Following the habituation session (on day 1), animals (N=72) were pseudo-randomly assigned to two groups, a Control group (N=12) and a Heroin group (N=60), in a way that there was no significant difference between the two groups for the total distance travelled in the apparatus and for the percentage of time spent and the percentage distance travelled in the grey compartment and in the striped compartment.
# Animals received the following treatments immediately before drug sessions: • Control group: vehicle • Heroin group: heroin (1.25 mg/kg)
# Following the last conditioning session, the Heroin group was pseudo-randomly divided into 5 groups (N=12/group) in a way that there was no significant difference between groups for the total distance travelled in the apparatus and for the percentage of time spent and the percentage distance travelled in the grey compartment and in the striped compartment in habituation session, for the distance travelled in the drug-paired and in the vehicle-paired compartments in conditioning sessions and for the proportion of striped drug-paired compartments.
# Animals received the following treatments before preference session: • Control group: vehicle of mazindol, i.p. 60 min before testing. • Hero group: vehicle of mazindol, i.p. 60 min before testing. • Hero-A 0.5 group: D-amphetamine (0.5 mg/kg), i.p. 30 min before testing. • Hero-Mz 0.125 group: mazindol (0.125 mg/kg), i.p. 60 min before testing. • Hero-Mz 0.25 group: mazindol (0.25 mg/kg), i.p. 60 min before testing. • Hero-Mz 0.5 group: mazindol (0.5 mg/kg), i.p. 60 min before testing.
# Following the habituation session (on day 1), animals (N=72) were pseudo-randomly assigned to three groups, a Control group (N=12), a Heroin group (N=48) and a Mazindol group (N=12), in a way that there was no significant difference between the three groups for the total distance travelled in the apparatus and for the percentage of time spent and the percentage distance travelled in the grey compartment and in the striped compartment.
# Animals received the following treatments before drug sessions: • Control group: vehicle, i.p. immediately before session. • Heroin group: heroin (1.25 mg/kg), i.p. immediately before session. • MAZ 2 group: mazindol (2 mg/kg), i.p. 60 min before session.
# Following the last conditioning session, the Heroin group was pseudo-randomly divided into 4 groups (N=12/group) in a way that there is no significant difference between groups for the total distance travelled in the apparatus and for the percentage of time spent and the percentage distance travelled in the grey compartment and in the striped compartment in habituation session, for the distance travelled in the drug-paired and in the vehicle-paired compartments in conditioning sessions and for the proportion of striped drug-paired compartments. […]
# [1] = Nakashima et al., 2004; cited from earlier work
# [2] = Hero-Mz 0.125: heroin 1.25 mg/kg conditioning, mazindol 0.125 mg/kg i.p. 60 min before preference session
# [3] = Hero-Mz 0.25: heroin 1.25 mg/kg conditioning, mazindol 0.25 mg/kg i.p. 60 min before preference session
# [4] = Hero-Mz 0.5: heroin 1.25 mg/kg conditioning, mazindol 0.5 mg/kg i.p. 60 min before preference session
# [5] = Hero-Mz 1: heroin 1.25 mg/kg conditioning, mazindol 1 mg/kg i.p. 60 min before preference session
# [6] = Hero-Mz 2: heroin 1.25 mg/kg conditioning, mazindol 2 mg/kg i.p. 60 min before preference session
# T1 sequence (P35367 whole entry): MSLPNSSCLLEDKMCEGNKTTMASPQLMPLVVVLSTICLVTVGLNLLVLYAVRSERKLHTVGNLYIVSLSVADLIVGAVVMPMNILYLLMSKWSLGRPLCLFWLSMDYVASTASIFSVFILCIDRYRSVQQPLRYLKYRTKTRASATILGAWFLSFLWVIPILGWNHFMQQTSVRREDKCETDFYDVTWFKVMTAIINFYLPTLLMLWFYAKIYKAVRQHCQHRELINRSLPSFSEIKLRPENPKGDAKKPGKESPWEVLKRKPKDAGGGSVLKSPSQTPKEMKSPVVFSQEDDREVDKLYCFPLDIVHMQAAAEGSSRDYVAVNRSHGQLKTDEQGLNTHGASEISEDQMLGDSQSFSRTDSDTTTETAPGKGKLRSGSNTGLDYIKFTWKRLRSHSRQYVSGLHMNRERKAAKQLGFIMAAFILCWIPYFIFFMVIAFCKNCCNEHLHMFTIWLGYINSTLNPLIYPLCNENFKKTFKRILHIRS
structure (smiles),measurement,setting,value
"OC1(c2ccc(Cl)cc2)c2ccccc2C2=NCCN21 (stereo not drawn) [Mazindol, 5-(4-chlorophenyl)-2,5-dihydro-3 H-imadazo[2,1-a]isoindol-5-ol]",inhibition at 10 µM,H1(h),75.3%
same,inhibition at 10 µM,"μ (MOP) (h); 1.0 × 10^−05 M, agonist radioligand, read-out: percent inhibition of the binding of a radioactively labeled ligand",89.9%
same,affinity for μ-opioid receptors,μ (MOP) (h); compared with amphetamines,higher affinity
same,affinity for κ-opioid receptors,k (KOP),modest affinity
same,Distance travelled in the drug-paired compartment,C57BL/6J mice; [2],5623.8 cm
same,Distance travelled in the two compartments (Drug + Vehicle),C57BL/6J mice; [2],9800.4 cm
same,Distance travelled in the vehicle-paired compartment,C57BL/6J mice; [2],4176.5 cm
same,"Distance travelled, drug-paired minus vehicle-paired compartment",C57BL/6J mice; [2],1447.3 cm
same,Time spent in the drug-paired compartment,C57BL/6J mice; [2],1105.7 s
same,Time spent in the vehicle-paired compartment,C57BL/6J mice; [2],694.3 s
same,"Time spent, drug-paired minus vehicle-paired compartment",C57BL/6J mice; [2],411.3 s
same,Distance travelled in the drug-paired compartment,C57BL/6J mice; [3],5092.1 cm
same,Distance travelled in the two compartments (Drug + Vehicle),C57BL/6J mice; [3],9390.5 cm
same,Distance travelled in the vehicle-paired compartment,C57BL/6J mice; [3],4298.4 cm
same,"Distance travelled, drug-paired minus vehicle-paired compartment",C57BL/6J mice; [3],793.8 cm
same,Time spent in the drug-paired compartment,C57BL/6J mice; [3],933.9 s
same,Time spent in the vehicle-paired compartment,C57BL/6J mice; [3],866.1 s
same,"Time spent, drug-paired minus vehicle-paired compartment",C57BL/6J mice; [3],67.8 s
same,Distance travelled in the drug-paired compartment,C57BL/6J mice; [4],4411.7 cm
same,Distance travelled in the two compartments (Drug + Vehicle),C57BL/6J mice; [4],8164.5 cm
same,Distance travelled in the vehicle-paired compartment,C57BL/6J mice; [4],3752.8 cm
same,"Distance travelled, drug-paired minus vehicle-paired compartment",C57BL/6J mice; [4],659.0 cm
same,Time spent in the drug-paired compartment,C57BL/6J mice; [4],965.1 s
same,Time spent in the vehicle-paired compartment,C57BL/6J mice; [4],834.9 s
same,"Time spent, drug-paired minus vehicle-paired compartment",C57BL/6J mice; [4],130.1 s
same,Distance travelled in the drug-paired compartment,C57BL/6J mice; [5],5464.5 cm
same,Distance travelled in the two compartments (Drug + Vehicle),C57BL/6J mice; [5],9746.4 cm
same,Distance travelled in the vehicle-paired compartment,C57BL/6J mice; [5],4281.9 cm
same,"Distance travelled, drug-paired minus vehicle-paired compartment",C57BL/6J mice; [5],1182.6 cm
same,Time spent in the drug-paired compartment,C57BL/6J mice; [5],1086.0 s
same,Time spent in the vehicle-paired compartment,C57BL/6J mice; [5],714.0 s
same,"Time spent, drug-paired minus vehicle-paired compartment",C57BL/6J mice; [5],372.0 s
same,Distance travelled in the drug-paired compartment,C57BL/6J mice; [6],7038.9 cm
same,Distance travelled in the two compartments (Drug + Vehicle),C57BL/6J mice; [6],12086.8 cm
same,Distance travelled in the vehicle-paired compartment,C57BL/6J mice; [6],5047.9 cm
same,"Distance travelled, drug-paired minus vehicle-paired compartment",C57BL/6J mice; [6],1990.9 cm
same,Time spent in the drug-paired compartment,C57BL/6J mice; [6],1089.7 s
same,Time spent in the vehicle-paired compartment,C57BL/6J mice; [6],710.3 s
same,"Time spent, drug-paired minus vehicle-paired compartment",C57BL/6J mice; [6],379.3 s
same,effect on the heroin-induced increases of distance travelled and of time spent in the drug-paired compartment,C57BL/6J mice; mazindol 0.125 mg,had no significant effect
same,effect on the heroin-induced increase of time spent in the drug-paired compartment,C57BL/6J mice; mazindol 0.25 mg/kg,Tended to reduce
same,effect on the heroin-induced increase of the difference of distance travelled in the drug-paired vs. vehicle-paired compartment,"C57BL/6J mice; mazindol 0.25 mg/kg, effect partial",Significantly reduced
same,effect on the heroin-induced increase of the difference of distance travelled in the drug-paired vs. vehicle-paired compartment,C57BL/6J mice; mazindol 0.5 mg/kg,Significantly antagonized
same,effect on the heroin-induced increase of time spent in the drug-paired compartment,C57BL/6J mice; mazindol 0.5 mg/kg,Tended to reduce
same,effect on the heroin-induced increase of the difference of distance travelled in the drug-paired vs. vehicle-paired compartment,C57BL/6J mice; mazindol 1 mg/kg,Did not significantly reduce
same,effect on the heroin-induced increase of time spent in the drug-paired compartment,C57BL/6J mice; mazindol 1 mg/kg,Did not significantly modify
same,effect on the heroin-induced increases of distance travelled and of time spent in the drug-paired compartment,C57BL/6J mice; mazindol 2 mg,had no significant effect
same,effect on the place preference induced by heroin,"C57BL/6J mice; mazindol 0.125, 1 and 2 mg/kg i.p. before preference session",did not induce effects suggesting a decrease of the place preference induced by heroin
same,"locomotor activity (total distance travelled, FIG. 3)",C57BL/6J mice; mazindol 0.125-2 mg/kg i.p. before preference session,decreased locomotor activity at all doses tested except 2 mg/kg
same,effect on the place preference induced by heroin,"C57BL/6J mice; mazindol 0.25, 0.5 mg/kg i.p. before preference session",decreased the place preference induced by heroin
same,stability (hydrolysis to Met),[1],hydrolysis of mazindol at moderate temperatures in neutral and alkaline aqueous solutions
